Format: physicochemical
Settings: vs Pt reference electrode; mobile phase 50 mM LiClO4 in 50:50 water/ACN; porous graphitic working electrode
Experimental: A standard phenol mixture (100 μM) was dissolved in (50:50) water/ACN to form a sample solution. Mobile phase A consisted of 50 mM LiClO4 in water, while mobile phase B consisted of 50 mM LiClO4 in ACN; a 50:50 mix was used. The sample solution was introduced into an Eksigent ExpressLC system through a micro-injector (40 nL) and separated on an HPLC column (Eksigent Technologies, 300 μm i.d., 15 cm; 3 μm C18 particles). The eluent from the column was run sequentially through a low-dispersion UV detector (Eksigent Technologies) and then through an electrochemical detection system according to an embodiment of the present invention.
The electrochemical detection system had two independent cells in series, connected by a fused silica capillary.

## Oc1ccccc1 [phenol]
  E1/2: 336 mV

## Oc1ccccc1Cl [2-chlorophenol]
  E1/2: 139 mV

## Oc1ccc(Cl)cc1Cl [2,4-dichlorophenol]
  E1/2: 305 mV

## Cc1cc(O)ccc1Cl [4-chloro-3-methylphenol]
  E1/2: 314 mV

## Cc1ccc(O)c(C)c1 [2,4-dimethylphenol]
  E1/2: 304 mV

— patent publication US20070170056A1, “Microscale electrochemical cell and methods incorporating the cell” (priority 2006, published 2007)
